Assay results published in ChEMBL document CHEMBL3132769, “Fragment growing to retain or alter the selectivity of anchored kinase hinge-binding fragments” (Medchemcomm, 2014).

Legend:
[1] = biological target: Vascular endothelial growth factor receptor 2 (Homo sapiens) (UniProt P35968); test: Inhibition of human KDR cytoplasmic domain expressed in baculovirus assessed as substrate phosphorylation using fluorescence-labelled peptides as substrate at 8 uM after 90 mins by microfluidic peptide phosphorylation assay
Vascular endothelial growth factor receptor 2 (Homo sapiens), sequence (P35968 whole entry, the tested form may be a part): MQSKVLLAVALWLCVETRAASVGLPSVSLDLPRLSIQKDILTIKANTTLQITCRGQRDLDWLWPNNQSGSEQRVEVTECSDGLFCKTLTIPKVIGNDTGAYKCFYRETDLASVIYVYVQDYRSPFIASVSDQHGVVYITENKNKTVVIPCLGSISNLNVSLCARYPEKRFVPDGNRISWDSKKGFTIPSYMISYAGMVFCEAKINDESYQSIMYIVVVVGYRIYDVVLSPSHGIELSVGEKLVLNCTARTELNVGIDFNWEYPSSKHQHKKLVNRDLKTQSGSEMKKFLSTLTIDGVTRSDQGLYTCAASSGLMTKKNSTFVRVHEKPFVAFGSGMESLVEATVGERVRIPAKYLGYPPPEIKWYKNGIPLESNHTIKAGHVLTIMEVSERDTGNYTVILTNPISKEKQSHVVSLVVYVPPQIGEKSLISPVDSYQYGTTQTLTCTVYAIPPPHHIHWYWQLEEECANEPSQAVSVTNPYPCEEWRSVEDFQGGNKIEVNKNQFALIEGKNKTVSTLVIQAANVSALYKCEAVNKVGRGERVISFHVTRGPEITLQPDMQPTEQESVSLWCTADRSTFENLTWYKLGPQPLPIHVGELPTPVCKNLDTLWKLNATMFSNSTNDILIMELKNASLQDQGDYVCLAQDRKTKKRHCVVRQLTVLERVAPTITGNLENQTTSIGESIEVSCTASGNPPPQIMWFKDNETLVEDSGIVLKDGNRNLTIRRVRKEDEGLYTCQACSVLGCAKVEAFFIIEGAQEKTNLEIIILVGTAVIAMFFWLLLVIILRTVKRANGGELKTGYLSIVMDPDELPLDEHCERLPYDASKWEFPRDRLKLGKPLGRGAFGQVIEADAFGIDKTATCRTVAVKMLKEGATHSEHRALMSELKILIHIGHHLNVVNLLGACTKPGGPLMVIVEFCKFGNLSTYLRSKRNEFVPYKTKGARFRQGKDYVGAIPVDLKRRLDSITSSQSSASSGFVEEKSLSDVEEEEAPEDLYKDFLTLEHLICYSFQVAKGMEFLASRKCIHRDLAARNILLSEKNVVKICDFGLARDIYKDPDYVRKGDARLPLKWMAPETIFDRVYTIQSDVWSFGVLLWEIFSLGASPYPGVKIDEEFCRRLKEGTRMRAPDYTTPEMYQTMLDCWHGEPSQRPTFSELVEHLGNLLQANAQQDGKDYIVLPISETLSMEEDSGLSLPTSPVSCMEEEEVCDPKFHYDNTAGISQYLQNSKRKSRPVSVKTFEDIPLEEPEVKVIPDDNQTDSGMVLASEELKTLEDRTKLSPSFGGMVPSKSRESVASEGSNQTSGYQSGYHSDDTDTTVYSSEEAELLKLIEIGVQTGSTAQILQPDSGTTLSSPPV

[2] = biological target: T1, Protein kinase C epsilon type (Homo sapiens) (UniProt Q02156); test: Inhibition of human truncated PKC epsilon expressed in baculovirus assessed as substrate phosphorylation using fluorescence-labelled peptides as substrate at 0.2 uM after 90 mins by microfluidic peptide phosphorylation assay
T1 sequence (whole entry): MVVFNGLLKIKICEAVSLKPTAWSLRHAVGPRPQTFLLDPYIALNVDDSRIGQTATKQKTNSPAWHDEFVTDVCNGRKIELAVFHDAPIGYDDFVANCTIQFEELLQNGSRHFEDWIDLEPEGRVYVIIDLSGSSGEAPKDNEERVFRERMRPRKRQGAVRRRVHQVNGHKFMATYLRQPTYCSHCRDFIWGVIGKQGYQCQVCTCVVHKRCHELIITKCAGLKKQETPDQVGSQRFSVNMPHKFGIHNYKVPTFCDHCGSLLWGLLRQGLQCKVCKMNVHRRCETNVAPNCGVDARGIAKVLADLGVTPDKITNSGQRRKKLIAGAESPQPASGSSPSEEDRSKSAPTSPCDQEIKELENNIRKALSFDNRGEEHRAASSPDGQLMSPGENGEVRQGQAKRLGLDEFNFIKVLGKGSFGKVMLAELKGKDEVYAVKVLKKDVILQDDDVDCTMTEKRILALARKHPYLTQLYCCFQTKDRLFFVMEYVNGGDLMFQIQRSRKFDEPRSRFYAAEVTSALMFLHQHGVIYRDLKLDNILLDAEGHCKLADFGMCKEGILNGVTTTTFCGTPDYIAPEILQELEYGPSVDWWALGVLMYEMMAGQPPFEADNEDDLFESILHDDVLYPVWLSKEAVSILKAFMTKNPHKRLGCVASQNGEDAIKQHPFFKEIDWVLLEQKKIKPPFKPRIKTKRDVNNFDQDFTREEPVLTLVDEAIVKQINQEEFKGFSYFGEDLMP

[3] = biological target: T2, Serine/threonine-protein kinase 3 (Homo sapiens) (UniProt Q13188); test: Inhibition of human full length MST2 expressed in baculovirus assessed as substrate phosphorylation using fluorescence-labelled peptides as substrate at 0.2 uM after 90 mins by microfluidic peptide phosphorylation assay
T2 sequence (whole entry): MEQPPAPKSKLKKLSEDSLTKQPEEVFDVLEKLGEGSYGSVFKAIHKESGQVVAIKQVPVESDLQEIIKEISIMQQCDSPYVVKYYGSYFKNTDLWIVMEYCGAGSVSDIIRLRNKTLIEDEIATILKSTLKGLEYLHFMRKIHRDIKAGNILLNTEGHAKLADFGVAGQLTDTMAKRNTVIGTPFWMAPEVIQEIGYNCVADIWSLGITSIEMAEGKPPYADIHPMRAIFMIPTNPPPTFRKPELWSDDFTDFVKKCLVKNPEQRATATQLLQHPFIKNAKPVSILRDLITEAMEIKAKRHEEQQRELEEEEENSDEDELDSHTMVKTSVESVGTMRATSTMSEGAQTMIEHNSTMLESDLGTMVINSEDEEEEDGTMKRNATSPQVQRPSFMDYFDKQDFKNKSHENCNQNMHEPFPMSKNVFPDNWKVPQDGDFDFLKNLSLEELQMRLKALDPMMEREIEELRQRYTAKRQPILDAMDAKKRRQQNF

[4] = biological target: T3, Testis-specific serine/threonine-protein kinase 2 (Homo sapiens) (UniProt Q96PF2); test: Inhibition of human full length TSSK2 expressed in baculovirus assessed as substrate phosphorylation using fluorescence-labelled peptides as substrate at 2 uM after 90 mins by microfluidic peptide phosphorylation assay
T3 sequence (whole entry): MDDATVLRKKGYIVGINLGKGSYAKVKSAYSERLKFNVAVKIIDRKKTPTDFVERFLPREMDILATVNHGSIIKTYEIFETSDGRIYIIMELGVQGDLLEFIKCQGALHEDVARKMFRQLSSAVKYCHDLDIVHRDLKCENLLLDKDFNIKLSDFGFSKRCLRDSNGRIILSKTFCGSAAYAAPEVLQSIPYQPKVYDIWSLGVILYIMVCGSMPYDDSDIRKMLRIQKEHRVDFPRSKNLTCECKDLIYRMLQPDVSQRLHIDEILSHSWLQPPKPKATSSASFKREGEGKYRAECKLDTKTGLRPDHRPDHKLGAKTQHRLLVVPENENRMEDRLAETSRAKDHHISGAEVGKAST

[5] = biological target: T4, Serine/threonine-protein kinase Sgk3 (Homo sapiens) (UniProt Q96BR1); test: Inhibition of human full length SGK3 expressed in baculovirus assessed as substrate phosphorylation using fluorescence-labelled peptides as substrate at […] after 90 mins by microfluidic peptide phosphorylation assay
T4 sequence (whole entry): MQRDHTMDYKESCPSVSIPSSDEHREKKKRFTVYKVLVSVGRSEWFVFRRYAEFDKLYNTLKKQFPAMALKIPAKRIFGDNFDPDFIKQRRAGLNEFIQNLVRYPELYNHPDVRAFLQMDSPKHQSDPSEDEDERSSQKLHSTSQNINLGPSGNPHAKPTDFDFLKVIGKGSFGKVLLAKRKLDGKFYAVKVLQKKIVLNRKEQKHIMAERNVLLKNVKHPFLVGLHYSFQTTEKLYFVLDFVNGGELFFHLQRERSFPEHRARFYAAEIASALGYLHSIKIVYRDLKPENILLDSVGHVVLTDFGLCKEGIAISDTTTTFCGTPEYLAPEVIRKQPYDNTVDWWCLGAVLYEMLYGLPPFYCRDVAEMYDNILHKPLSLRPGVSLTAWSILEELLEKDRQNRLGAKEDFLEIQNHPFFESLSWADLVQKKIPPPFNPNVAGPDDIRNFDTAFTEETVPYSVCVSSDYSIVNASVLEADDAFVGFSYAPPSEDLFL

[6] = biological target: Serine/threonine-protein kinase MARK1 (Homo sapiens) (UniProt Q9P0L2); test: Inhibition of human full length MARK1 expressed in baculovirus assessed as substrate phosphorylation using fluorescence-labelled peptides as substrate at […] after 90 mins by microfluidic peptide phosphorylation assay
Serine/threonine-protein kinase MARK1 (Homo sapiens), sequence (Q9P0L2 whole entry, looked up, the tested form may be a part): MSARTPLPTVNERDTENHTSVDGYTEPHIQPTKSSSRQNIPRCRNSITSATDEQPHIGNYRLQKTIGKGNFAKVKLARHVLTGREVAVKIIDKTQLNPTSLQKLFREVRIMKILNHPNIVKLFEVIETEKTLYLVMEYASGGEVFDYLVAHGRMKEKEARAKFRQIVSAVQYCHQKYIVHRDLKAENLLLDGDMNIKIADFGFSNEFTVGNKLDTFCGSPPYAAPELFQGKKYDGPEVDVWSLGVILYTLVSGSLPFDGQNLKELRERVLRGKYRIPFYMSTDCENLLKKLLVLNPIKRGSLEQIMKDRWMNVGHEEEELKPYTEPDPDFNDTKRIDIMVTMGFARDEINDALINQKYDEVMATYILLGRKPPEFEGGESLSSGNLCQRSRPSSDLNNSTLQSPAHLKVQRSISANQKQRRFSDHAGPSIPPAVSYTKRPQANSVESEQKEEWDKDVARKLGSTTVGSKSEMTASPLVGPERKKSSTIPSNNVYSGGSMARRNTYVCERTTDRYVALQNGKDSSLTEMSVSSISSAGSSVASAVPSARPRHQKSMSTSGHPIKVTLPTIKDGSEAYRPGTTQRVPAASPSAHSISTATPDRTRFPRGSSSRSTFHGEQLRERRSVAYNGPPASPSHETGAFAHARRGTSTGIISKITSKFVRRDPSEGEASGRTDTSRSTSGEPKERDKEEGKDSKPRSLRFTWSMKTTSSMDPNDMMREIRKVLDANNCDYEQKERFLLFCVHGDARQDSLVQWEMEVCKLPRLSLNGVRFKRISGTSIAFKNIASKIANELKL

[7] = biological target: Protein kinase C delta type (Homo sapiens) (UniProt Q05655); test: Inhibition of human truncated PKC delta expressed in baculovirus assessed as substrate phosphorylation using fluorescence-labelled peptides as substrate at 95 uM after 90 mins by microfluidic peptide phosphorylation assay
Protein kinase C delta type (Homo sapiens), sequence (Q05655 whole entry, looked up, the tested form may be a part): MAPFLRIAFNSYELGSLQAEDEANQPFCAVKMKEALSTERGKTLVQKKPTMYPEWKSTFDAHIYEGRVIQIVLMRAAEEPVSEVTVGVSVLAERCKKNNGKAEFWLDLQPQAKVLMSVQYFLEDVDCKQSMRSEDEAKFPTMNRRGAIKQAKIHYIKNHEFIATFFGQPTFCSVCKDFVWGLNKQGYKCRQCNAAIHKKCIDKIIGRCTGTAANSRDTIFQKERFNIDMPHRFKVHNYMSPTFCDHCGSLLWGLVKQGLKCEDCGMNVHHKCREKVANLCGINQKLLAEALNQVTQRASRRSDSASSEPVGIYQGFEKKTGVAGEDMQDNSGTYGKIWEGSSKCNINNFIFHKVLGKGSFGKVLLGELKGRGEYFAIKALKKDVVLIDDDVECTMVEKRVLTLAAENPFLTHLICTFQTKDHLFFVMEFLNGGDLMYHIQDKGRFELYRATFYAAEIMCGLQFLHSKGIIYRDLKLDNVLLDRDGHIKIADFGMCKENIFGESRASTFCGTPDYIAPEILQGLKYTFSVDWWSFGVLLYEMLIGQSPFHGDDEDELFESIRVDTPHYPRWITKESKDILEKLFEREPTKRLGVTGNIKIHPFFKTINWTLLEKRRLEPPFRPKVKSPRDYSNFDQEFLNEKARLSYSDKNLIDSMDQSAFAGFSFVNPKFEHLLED

[8] = biological target: Ribosomal protein S6 kinase alpha-5 (Homo sapiens) (UniProt O75582); test: Inhibition of human full length MSK1 expressed in baculovirus assessed as substrate phosphorylation using fluorescence-labelled peptides as substrate at 1000 uM after 90 mins by microfluidic peptide phosphorylation assay
Ribosomal protein S6 kinase alpha-5 (Homo sapiens), sequence (O75582 whole entry, looked up): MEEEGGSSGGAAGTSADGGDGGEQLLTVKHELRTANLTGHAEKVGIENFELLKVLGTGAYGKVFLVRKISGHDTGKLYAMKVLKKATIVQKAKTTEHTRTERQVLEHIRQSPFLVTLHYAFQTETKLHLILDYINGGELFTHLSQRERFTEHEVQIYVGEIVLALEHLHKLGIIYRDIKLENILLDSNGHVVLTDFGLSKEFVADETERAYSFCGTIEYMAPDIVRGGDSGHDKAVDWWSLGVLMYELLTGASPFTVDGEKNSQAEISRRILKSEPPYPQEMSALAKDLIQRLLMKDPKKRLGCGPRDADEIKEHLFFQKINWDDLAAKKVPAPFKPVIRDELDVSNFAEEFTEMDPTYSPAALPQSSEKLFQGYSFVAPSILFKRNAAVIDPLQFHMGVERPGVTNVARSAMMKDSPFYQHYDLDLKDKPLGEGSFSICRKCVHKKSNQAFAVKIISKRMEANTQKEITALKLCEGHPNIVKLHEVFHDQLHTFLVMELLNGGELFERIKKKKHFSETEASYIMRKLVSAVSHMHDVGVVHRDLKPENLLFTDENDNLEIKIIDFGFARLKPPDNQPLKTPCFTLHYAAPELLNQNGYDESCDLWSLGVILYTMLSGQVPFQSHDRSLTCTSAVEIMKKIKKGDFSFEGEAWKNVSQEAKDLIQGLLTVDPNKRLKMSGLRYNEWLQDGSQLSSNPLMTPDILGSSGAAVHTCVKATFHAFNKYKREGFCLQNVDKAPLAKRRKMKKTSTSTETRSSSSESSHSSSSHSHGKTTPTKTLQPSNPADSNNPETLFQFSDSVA

How did the inhibition [1] turn out when `NCC1CCN(c2ncnc3[nH]ccc23)CC1` was run?
Its inhibition is 50%.

With `Clc1ccc(C2(c3ccc(-c4ncnc5[nH]cnc45)cc3)CCNCC2)cc1` as the molecule, how does the inhibition [2] read?
Its inhibition is 46.5%.

And the inhibition [3]?
The inhibition was 2%.

How did the inhibition [4] turn out when `NC1CCN(c2ncnc3[nH]ccc23)CC1` was run?
Its inhibition is 6.5%.

With `COC(=O)c1cnc(Nc2cnc(C#N)cn2)cc1NCC1CCNCC1` as the molecule, how does the inhibition [5] read?
The inhibition was 5%.

And the inhibition [6]?
The inhibition was 5%.

Which inhibition [7] does the source give for `NCCc1ccc(-c2ncnc3[nH]cnc23)cc1` here?
Its inhibition is 72%.

`c1cnc2[nH]ccc2c1` was tested. Which inhibition [8] did it give?
The inhibition was 87%.
